Ki data for six compounds are collected here from BindingDB's records for doi:10.1016/j.bmc.2012.11.021 (University of Bonn, 2012).

Assay [1] addresses T1, Adenosine receptor A2b (Homo sapiens, UniProt P29275).
T1 sequence (P29275 whole entry): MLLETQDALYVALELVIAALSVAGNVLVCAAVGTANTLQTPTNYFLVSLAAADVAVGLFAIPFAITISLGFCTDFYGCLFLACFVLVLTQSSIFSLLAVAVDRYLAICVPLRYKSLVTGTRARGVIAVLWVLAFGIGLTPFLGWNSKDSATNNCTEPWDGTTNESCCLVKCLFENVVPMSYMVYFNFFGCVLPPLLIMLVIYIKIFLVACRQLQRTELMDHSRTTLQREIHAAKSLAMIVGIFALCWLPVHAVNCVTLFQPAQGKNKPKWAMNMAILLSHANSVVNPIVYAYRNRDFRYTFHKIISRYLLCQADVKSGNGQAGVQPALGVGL
Description: Displacement of [3H]PSB-603 from human recombinant adenosine A2B receptor expressed in CHO cells after 75 mins by liquid scintillation counting analysis. A general note: In a radioligand displacement assay an active substance lowers the binding of a labelled ligand.

The target in assay [2] is Adenosine receptor A2a (Rattus norvegicus, UniProt P30543). Description: Displacement of [3H]CGS21680 from adenosine A2A receptor in rat brain striatal membrane after 60 mins by liquid scintillation counting analysis.
Adenosine receptor A2a, sequence (P30543 whole entry): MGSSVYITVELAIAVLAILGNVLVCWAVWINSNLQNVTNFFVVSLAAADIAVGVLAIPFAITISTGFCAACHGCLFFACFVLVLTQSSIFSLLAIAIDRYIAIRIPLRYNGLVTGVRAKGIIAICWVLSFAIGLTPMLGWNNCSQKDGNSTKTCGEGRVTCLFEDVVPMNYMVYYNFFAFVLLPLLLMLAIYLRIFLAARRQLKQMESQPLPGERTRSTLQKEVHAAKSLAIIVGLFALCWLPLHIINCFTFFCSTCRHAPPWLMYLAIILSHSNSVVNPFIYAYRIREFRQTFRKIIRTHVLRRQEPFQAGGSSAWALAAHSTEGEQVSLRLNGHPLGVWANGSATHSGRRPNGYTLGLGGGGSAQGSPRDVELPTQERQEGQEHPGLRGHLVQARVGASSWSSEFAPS

Molecules are shown by their SMILES.

One may read the Ki as a dissociation constant, usually derived from enzyme kinetics or from competition with a known ligand. With `Nc1nc(NNC(CO)C(=O)[C@@H](O)[C@@H](O)CO)nc2c1ncn2[C@@H]1O[C@H](CO)[C@@H](O)[C@H]1O` (some centres not stated), the Ki was above 10 µM in assay [1] and above 1 µM in assay [2].
In the same order, the values of `CN(NC(CO)C(=O)[C@@H](O)[C@@H](O)CO)c1nc(N)c2ncn([C@@H]3O[C@H](CO)[C@@H](O)[C@H]3O)c2n1` (some centres not stated) are above 10 µM and above 1 µM.
For `CN(NCC(=O)[C@H](O)[C@@H](O)[C@@H](O)CO)c1nc(N)c2ncn([C@@H]3O[C@H](CO)[C@@H](O)[C@H]3O)c2n1` the same measures were above 10 µM and above 1 µM.
Turning to `CN(NCC(=O)[C@@H](O)[C@@H](O)CO)c1nc(N)c2ncn([C@@H]3O[C@H](CO)[C@@H](O)[C@H]3O)c2n1`, the Ki in assay [1] is above 10 µM; in assay [2], above 1 µM.
For `Nc1nc(NNCC(=O)[C@@H](O)[C@@H](O)CO)nc2c1ncn2[C@@H]1O[C@H](CO)[C@@H](O)[C@H]1O` the same measures were above 10 µM and above 1 µM.
For `CN(NCC(=O)[C@@H](O)[C@@H](O)[C@H](O)CO)c1nc(N)c2ncn([C@@H]3O[C@H](CO)[C@@H](O)[C@H]3O)c2n1` the same measures were above 10 µM and above 1 µM.
